Key:
Ehrlich = experiment: (§1) Evaluated for the inhibition of cell-free gelation in Ehrlich Ascites tumor extracts; type: functional; details: Mus musculus, read-out: ID50 (the source's name)
Mus musculus = species on record: Mus musculus; experiment: as §1; type: functional

SMILES | IC50 (Ehrlich) | ID50 (Mus musculus)
CC(=O)OC1/C=C\C(C)(O)C(=O)C(C)C/C=C/C2C(O)C(C)=C(C)C3C(Cc4ccccc4)NC(=O)C123 (configuration not stated) | 350 nM | –
C=C1C(C)C2C(Cc3ccccc3)NC(=O)C23C(OC(C)=O)/C=C\C(C)(O)C(=O)C(C)C/C=C/C3C1O (configuration not stated) | 210 nM | –
CC(=O)OC1/C=C\C(C)(O)C(=O)C(C)C/C=C/C2C(O)C(CBr)=C(C)C3C(Cc4ccccc4)NC(=O)C123 (configuration not stated) | 740 nM | –
CC(=O)OC1/C=C\C(C)(O)C(=O)C(C)C/C=C/C2C(O)C(Br)(CBr)C(C)C3C(Cc4ccccc4)NC(=O)C123 (configuration not stated) | – | 4500 nM
CC(=O)OC1/C=C\C(C)(O)C(=O)C(C)C/C=C/C2C(O)C(CN=[N+]=[N-])=C(C)C3C(Cc4ccccc4)NC(=O)C123 (configuration not stated) | 880 nM | –
CC(=O)OC1/C=C\C(C)(O)C(=O)C(C)C/C=C/C2C(O)C(CI)=C(C)C3C(Cc4ccccc4)NC(=O)C123 (configuration not stated) | 600 nM | –
CC(=O)OC1/C=C\C(C)(O)C(=O)C(C)C/C=C/C2C(O)C(CC#N)=C(C)C3C(Cc4ccccc4)NC(=O)C123 (configuration not stated) | – | 7700 nM
